Data set [1] in a line: Cytotoxicity against Vero cells. The data set is classed as cell-based. The following applies: chlorocebus sabaeus.
Data set [2] has as its system Human alphaherpesvirus 1. The data set can be described thus: Antiviral activity against HSV1 SC16 in Vero cells by capture hybrid method. It counts as functional, organism-based. The settings on record: Human alphaherpesvirus 1, SC16, Vero.

As for `Cc1cccn2c(-c3ccnc(NC4CCCC4)n3)c(-c3ccc(F)cc3)nc12`, in data set [1], the CC50 – broadly, the concentration giving 50% cytotoxicity – was greater than 40000 nM. It took 1530 nM to reach half-maximal inhibition in data set [2] (IC50). On the same counts, the results for `Fc1ccc(-c2nc3c(NC4CCCC4)cc(Cl)cn3c2-c2ccnc(NC3CCCC3)n2)cc1` are greater than 40000 nM and 370 nM. Consider `Fc1ccc(-c2nc3c(NC4CCCC4)cc(Br)cn3c2-c2ccnc(NC3CCCC3)n2)cc1`, for which the cytotoxic concentration (CC50) in data set [1] is greater than 40000 nM. In addition, the 50% inhibitory concentration (IC50) (commonly the concentration that inhibits the measured activity by half) in data set [2] came to 220 nM. For `CCCCNc1cc(Br)cn2c(-c3ccnc(NC4CCCC4)n3)c(-c3ccc(F)cc3)nc12`, in that order: greater than 40000 nM and 300 nM. For `Fc1ccc(-c2nc3c(NC4CCCC4)cccn3c2-c2ccnc(NC3CCCC3)n2)cc1`, in that order: greater than 40000 nM and 590 nM. For `COc1ccc(-c2nc3c(NC4CCCC4)cccn3c2-c2ccnc(NC3CCCC3)n2)cc1`, in that order: greater than 10000 nM and 480 nM. In data set [1], `Cc1cc(NC2CC2)cn2c(-c3ccnc(NC4CCCC4)n3)c(-c3ccc(F)cc3)nc12` yielded a CC50 greater than 40000 nM. In data set [2], this compound returned an IC50 of 120 nM. For `Oc1ccc(-c2nc3c(NC4CCCC4)cccn3c2-c2ccnc(NC3CCCC3)n2)cc1`, in that order: greater than 40000 nM and 3400 nM.

Compound `COc1cccc(-c2nc3c(Cl)cccn3c2-c2ccnc(NC3CCCC3)n2)c1` yielded a CC50 in data set [1] greater than 40000 nM. The same compound displayed an IC50 in data set [2] of 1730 nM. On the same counts, the results for `COc1cccc(-c2nc3c(NC4CCCC4)cccn3c2-c2ccnc(NC3CCCC3)n2)c1` are greater than 40000 nM and 710 nM.

For the compound `Oc1cccc(-c2nc3c(NC4CCCC4)cccn3c2-c2ccnc(NC3CCCC3)n2)c1`, the CC50 in data set [1] is greater than 40000 nM. This compound came in with an IC50 in data set [2] of 3130 nM. On the same counts, the results for `N#Cc1ccc(-c2nc3c(NC4CCCC4)cccn3c2-c2ccnc(NC3CCCC3)n2)cc1` are greater than 40000 nM and 320 nM. On the same counts, the results for `N#Cc1cccc(-c2nc3c(NC4CCCC4)cccn3c2-c2ccnc(NC3CCCC3)n2)c1` are greater than 40000 nM and 360 nM. For `Cc1ccc(-c2nc3c(NC4CCCC4)cccn3c2-c2ccnc(NC3CCCC3)n2)cc1`, in that order: greater than 40000 nM and 1610 nM. On to `Fc1ccc(-c2nc3c(NC4CC4)cccn3c2-c2ccnc(NC3CCCC3)n2)cc1`, for which the CC50 in data set [1] came to 33000 nM. The same compound came in with an IC50 in data set [2] of 510 nM.

As to `Fc1ccc(-c2nc3c(N4CCCC4)cccn3c2-c2ccnc(NC3CCCC3)n2)cc1`, the half-maximal cytotoxic concentration (CC50) in data set [1] was greater than 40000 nM. In data set [2], this compound yielded a 50% inhibitory concentration (IC50) of 1880 nM. For `COCCNc1cccn2c(-c3ccnc(NC4CCCC4)n3)c(-c3ccc(F)cc3)nc12`, in that order: greater than 40000 nM and 260 nM. On the same counts, the results for `CNc1nccc(-c2c(-c3ccc(F)cc3)nc3c(Cl)cccn23)n1` are greater than 40000 nM and 9300 nM. `Fc1ccc(-c2nn3c(NC4CCCC4)cccc3c2-c2ccnc(NC3CCCC3)n2)cc1` gave a half-maximal cytotoxic concentration (CC50) in data set [1] greater than 160000 nM. In data set [1], `Fc1ccc(-c2nc3ccc(Br)cn3c2-c2ccnc(NC3CCCC3)n2)cc1` came in with a CC50 greater than 40000 nM. Also, in data set [2], the half-maximal inhibitory concentration (IC50) was found to be 4080 nM. For `Fc1ccc(-c2nc3ccc(NC4CCCC4)cn3c2-c2ccnc(NC3CCCC3)n2)cc1`, in that order: greater than 40000 nM and 330 nM.

`Cc1cc(Br)cn2c(-c3ccnc(NC4CCCC4)n3)c(-c3ccc(F)cc3)nc12` displayed a CC50 in data set [1] greater than 40000 nM. Further, in data set [2], the IC50 was 1160 nM. For `Cc1cc(NC2CCCC2)cn2c(-c3ccnc(NC4CCCC4)n3)c(-c3ccc(F)cc3)nc12`, in that order: greater than 40000 nM and 150 nM. Turning to `Fc1ccc(-c2nc3c(NC4CCCC4)cccn3c2-c2ccnc(NC3CCCC3)c2)cc1`, the CC50 in data set [1] is greater than 40000 nM. `c1cc(NC2CCCC2)c2nc(-c3ccc(OCC4CC4)cc3)c(-c3ccnc(NC4CCCC4)n3)n2c1` showed a 50% cytotoxic concentration (CC50) in data set [1] greater than 40000 nM. In data set [2], this compound returned a half-maximal inhibitory concentration (IC50) of 270 nM. For `C=CCOc1cccc(-c2nc3c(NC4CCCC4)cccn3c2-c2ccnc(NC3CCCC3)n2)c1`, in that order: greater than 40000 nM and 300 nM. For `COc1ccc(-c2nc3c(Cl)cccn3c2-c2ccnc(NC3CCCC3)n2)cc1`, in that order: 30100 nM and 1430 nM.

Regarding `C=CCOc1ccc(-c2nc3c(NC4CCCC4)cccn3c2-c2ccnc(NC3CCCC3)n2)cc1`, the half-maximal cytotoxic concentration (CC50) in data set [1] is greater than 40000 nM. The compound further came in with a 50% inhibitory concentration (IC50) in data set [2] of 570 nM. For `Fc1ccc(-c2nc3c(Cl)cc(Cl)cn3c2-c2ccnc(NC3CCCC3)n2)cc1`, in that order: greater than 40000 nM and 1110 nM. Take `CCCCNc1cccn2c(-c3ccnc(NC4CCCC4)n3)c(-c3ccc(F)cc3)nc12`: in data set [1], it took 32000 nM to reach half-maximal cytotoxicity (CC50). This compound yielded an IC50 in data set [2] of 800 nM. On the same counts, the results for `CNc1nccc(-c2c(-c3ccc(F)cc3)nc3c(NC4CCCC4)cccn23)n1` are greater than 40000 nM and greater than 5000 nM. On the same counts, the results for `Fc1ccc(-c2nc3c(Br)cc(Br)cn3c2-c2ccnc(NC3CCCC3)n2)cc1` are greater than 40000 nM and 800 nM.

`Fc1ccc(-c2nc3ccccn3c2-c2ccnc(NC3CCCC3)n2)cc1` displayed a CC50 in data set [1] greater than 40000 nM. For the same compound, it took 3300 nM to reach half-maximal inhibition in data set [2] (IC50). In data set [1], `Nc1nc2c(ncn2COCCO)c(=O)[nH]1` [ACYCLOVIR] showed a half-maximal cytotoxic concentration (CC50) greater than 200000 nM.

(Values after ChEMBL document CHEMBL1144639, “Imidazo[1,2-a]pyridines with potent activity against herpesviruses” (Bioorg Med Chem Lett, 2007).)
